In data set [1] the test system is Rattus norvegicus. In words: Anti-inflammatory activity in carrageenan-induced paw edema Rattus norvegicus Sprague-Dawley (rat) model assessed as increase in paw volume at 20.52 mg/kg, po measured after 2 hr. It is filed as functional.
Data set [2] relates to Rattus norvegicus. In words: Anti-inflammatory activity in carrageenan-induced paw edema Rattus norvegicus Sprague-Dawley (rat) model assessed as increase in paw volume at 20.52 mg/kg, po measured after 4 hr. It is filed as functional.
Data set [3] has as its system Mus musculus. In words: Analgesic activity in Mus musculus LACCA (mouse) assessed as inhibition of acetic acid-induced writhing at 17.49 mg/kg, po measured during 20 min period beginning 3 min after acetic acid challenge.
Data set [4] deals with Rattus norvegicus. In words: Gastrointestinal toxicity in Rattus norvegicus Sprague-Dawley (rat) assessed as ulcer index at 83.98 mg/kg, po measured after 8 hr (reference value: 0.2 +/- 0.06). It is filed as organism-based. Details: dose 83.98 mg/kg, route oral. The conditions noted are these: in vivo.
Data set [5] concerns Rattus norvegicus. In words: Anti-inflammatory activity in carrageenan-induced paw edema Rattus norvegicus Sprague-Dawley (rat) model assessed as increase in paw volume at 23.95 mg/kg, po measured after 4 hr. In kind it is functional.
The subject of data set [6] is Rattus norvegicus. As to the kind of experiment: Gastrointestinal toxicity in Rattus norvegicus Sprague-Dawley (rat) assessed as ulcer index at 82 mg/kg, po measured after 8 hr (reference value: 0.2 +/- 0.06). In kind it is organism-based. Details: dose 82 mg/kg, route oral. The conditions noted are these: in vivo.
Data set [7] deals with Mus musculus. In words: Analgesic activity in Mus musculus LACCA (mouse) assessed as inhibition of acetic acid-induced writhing at 17.1 mg/kg, po measured during 20 min period beginning 3 min after acetic acid challenge.
Data set [8] relates to Rattus norvegicus. In words: Anti-inflammatory activity in carrageenan-induced paw edema Rattus norvegicus Sprague-Dawley (rat) model assessed as increase in paw volume at 23.95 mg/kg, po measured after 2 hr. In kind it is functional.
The test system of data set [9] is Mus musculus. As to the kind of experiment: Analgesic activity in Mus musculus LACCA (mouse) assessed as inhibition of acetic acid-induced writhing at 10 mg/kg, po measured during 20 min period beginning 3 min after acetic acid challenge.
Data set [10] concerns Rattus norvegicus. As to the kind of experiment: Anti-inflammatory activity in carrageenan-induced paw edema Rattus norvegicus Sprague-Dawley (rat) model assessed as increase in paw volume at 12 mg/kg, po measured after 4 hr. In kind it is functional.
For data set [11], the system named is Rattus norvegicus. In words: Anti-inflammatory activity in carrageenan-induced paw edema Rattus norvegicus Sprague-Dawley (rat) model assessed as increase in paw volume at 12 mg/kg, po measured after 2 hr. In kind it is functional.
Data set [12] deals with Rattus norvegicus. In words: Gastrointestinal toxicity in Rattus norvegicus Sprague-Dawley (rat) assessed as ulcer index at 48 mg/kg, po measured after 8 hr (reference value: 0.2 +/- 0.06). Details: dose 48 mg/kg, route oral. Particulars: in vivo. In kind it is organism-based.

Molecules are shown by their SMILES.

The values that follow come from ChEMBL document CHEMBL3045455, “Design, synthesis and evaluation of novel indomethacinflavonoid mutual prodrugs as safer NSAIDs” (Med Chem Res, 2011).

For the compound `COc1ccc2c(c1)c(CC(=O)Oc1cc(O)c3c(c1)O[C@H](c1ccc(OC)c(O)c1)CC3=O)c(C)n2C(=O)c1ccc(Cl)cc1` [INDOMETHACIN-HESPERTIN], the Activity in data set [1] came to 37.78%; in data set [2], 38.22%. Besides, the inhibition in vivo at 17.49 mg/kg in data set [3] is 89.4%. In addition, in data set [4], the UI came to 0.54.

For `COc1ccc2c(c1)c(CC(=O)Oc1cc(O)c3c(c1)O[C@H](c1ccc(O)cc1)CC3=O)c(C)n2C(=O)c1ccc(Cl)cc1` [INDOMETHACIN-NARINGENIN], the Activity in data set [5] is listed as 40.46%; in data set [8], 39.13%. In addition, the UI in [6] came out at 0.62. Further, the inhibition in vivo at 17.1 mg/kg in data set [7] turned out to be 86.7%.

`COc1ccc2c(c1)c(CC(=O)O)c(C)n2C(=O)c1ccc(Cl)cc1` [INDOMETHACIN]: in [9], the inhibition in vivo at 10 mg/kg turned out to be 74.2%. In addition, the Activity in data set [10] is 57.39%; in data set [11], 48.35%. Also, the UI in data set [12] amounted to 5.54.
